Literature values as cited in patent US6936590B2, “C-aryl glucoside SGLT2 inhibitors and method” (Bristol Myers Squibb Company, priority 2001, dated 2005).

Assays:
human SGLT2 = target: T1, human SGLT2 (Homo sapiens, UniProt P31639); settings: read-out: Km values for uptake
T1 sequence (P31639 1-672): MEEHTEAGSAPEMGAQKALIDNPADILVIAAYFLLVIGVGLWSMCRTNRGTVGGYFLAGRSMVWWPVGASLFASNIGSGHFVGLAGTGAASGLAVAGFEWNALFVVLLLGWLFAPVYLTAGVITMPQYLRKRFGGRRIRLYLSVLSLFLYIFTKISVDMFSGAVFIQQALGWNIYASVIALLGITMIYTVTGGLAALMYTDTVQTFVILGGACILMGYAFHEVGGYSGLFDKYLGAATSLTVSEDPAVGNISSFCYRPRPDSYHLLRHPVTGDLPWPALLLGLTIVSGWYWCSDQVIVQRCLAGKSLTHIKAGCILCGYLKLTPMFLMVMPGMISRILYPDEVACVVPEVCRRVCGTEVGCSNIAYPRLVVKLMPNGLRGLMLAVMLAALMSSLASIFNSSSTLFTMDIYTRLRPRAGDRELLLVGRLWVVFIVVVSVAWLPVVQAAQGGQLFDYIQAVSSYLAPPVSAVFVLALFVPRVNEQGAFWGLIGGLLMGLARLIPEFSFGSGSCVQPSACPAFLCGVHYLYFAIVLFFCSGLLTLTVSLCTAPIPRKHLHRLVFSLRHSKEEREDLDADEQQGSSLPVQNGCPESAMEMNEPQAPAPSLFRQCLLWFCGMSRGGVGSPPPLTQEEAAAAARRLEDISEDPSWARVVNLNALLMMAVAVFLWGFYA

human SGLT1 = target: T2, human SGLT1 (Homo sapiens, UniProt P13866); settings: read-out: Km values for uptake
T2 sequence (P13866 1-664): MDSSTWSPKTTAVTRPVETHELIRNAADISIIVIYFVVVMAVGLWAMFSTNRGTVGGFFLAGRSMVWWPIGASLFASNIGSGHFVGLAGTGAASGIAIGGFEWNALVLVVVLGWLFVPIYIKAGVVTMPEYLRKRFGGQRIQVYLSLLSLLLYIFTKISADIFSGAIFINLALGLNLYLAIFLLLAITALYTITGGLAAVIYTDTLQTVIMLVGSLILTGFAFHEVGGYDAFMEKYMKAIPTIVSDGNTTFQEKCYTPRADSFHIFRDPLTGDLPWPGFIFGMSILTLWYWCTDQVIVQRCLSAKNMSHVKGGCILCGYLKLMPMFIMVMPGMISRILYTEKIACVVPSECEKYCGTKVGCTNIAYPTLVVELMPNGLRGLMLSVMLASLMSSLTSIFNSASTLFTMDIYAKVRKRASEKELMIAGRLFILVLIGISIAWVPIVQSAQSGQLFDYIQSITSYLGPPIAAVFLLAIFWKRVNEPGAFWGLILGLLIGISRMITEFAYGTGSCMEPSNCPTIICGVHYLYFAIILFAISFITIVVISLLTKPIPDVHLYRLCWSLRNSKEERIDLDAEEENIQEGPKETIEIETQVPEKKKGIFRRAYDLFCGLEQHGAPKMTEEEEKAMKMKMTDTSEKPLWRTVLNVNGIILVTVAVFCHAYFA

| Structure (SMILES) | Km (human SGLT2) | Km (human SGLT1) | adverse effects on plasma ion balance, renal function or renal morphology (SGLT activity; phlorizin treatment for as long as two weeks) | effect on glucose excretion and plasma glucose (SGLT activity; several diabetic rodent models and one canine diabetes model) |
| --- | --- | --- | --- | --- |
| CO[C@H]1O[C@H](CO)[C@@H](O)[C@H](O)[C@H]1O [AMG, α-methyl-D-glucopyranoside] | 1600 µM | 400 µM |  |  |
| O=C(CCc1ccc(O)cc1)c1c(O)cc(O)cc1O[C@@H]1O[C@H](CO)[C@@H](O)[C@H](O)[C@H]1O [phlorizin] |  |  | No adverse effects on plasma ion balance, renal function or renal morphology have been observed | promoting glucose excretion, lowering fasting and fed plasma glucose, and promoting glucose utilization without hypoglycemic side effects |
